Where a name gives a salt, the structure may show the parent alone. Read-outs that look alike come from different tables or passages of the source.
Key:
[1] = not given; remark: listed apart in the source
corn plants = assay type: in vivo
[2] = 90% H2O/D2O; for Percent Degradation: 31P NMR
physchem = conditions: buffer, t1/2 (days) of first step
[3] = assay type: physicochemical
people = conditions: cited from earlier work
radish = conditions: cited from earlier work
lettuce plants = conditions: in vivo; cited from earlier work
peas = conditions: in vivo; cited from earlier work
pea plants = test: Growth of peas exposed to dibutyldithiophosphate (pots, 88 days); assay type: in vivo
Experimental: Peas were planted and grown in 8.25 inch TEKU pots. The pots were packed finger tight with potting mix #4 from Beautiful Land Products. The pea seeds were planted approximately 1.5 inches deep. 25 seeds were planted per dosing of dibutyldithiophosphate potassium salt. After the seeds were planted into the soil the desired amount of dibutyldithiophosphate for 32 doses was added to 160 mL of tap water. After mixing well for 10 minutes, 5 mL of the dibutyldithiophosphate solution was then added to the top of each seed after it was planted in the soil. Soil was then used to cover the seed. After adding the salt, the plants were moved outside in full sunlight until harvest. The pea plants were watered daily. Peter's Professional B 20-20-20 water soluble fertilizer was used at 1 tablespoon per 3 gallons of tap water and 350 mL of this solution was added to each plant. Plants were fertilized on day 44, 51, 66, 73, and 81.
The pea plants were harvested after 88 days. The plant was harvested by cutting the above soil portion of the plant at the root-stem boundary. The above ground portion of the plant was weighed in its entirety. Next the pods were removed, counted and weighed separately from the rest of the plant. Statistical analysis was performed using IBM SPSS Statistics 25. Dunnett's 2-sided t-test was performed to determine significance. Data represented are mean±standard error with ** indicating α<0.05 and * indicating α<0.1.

soybeans = test: Field trial: harvest yield of soybeans; assay type: in vivo; conditions: 2 kg (per acre), side dressing, vs plants not exposed
Source text: All essential plant nutrients (N, P, K, and S) were applied in non-limiting amounts. Prior to planting soybeans, the fields were fertilized with 60 lb acre of P2O5, 80 lb per acre of K2O, and 20 lb per acre of sulfur. The soybean seeds were a 2.8-3.2 relative maturity planted at 120,000 to 140,000 seeds per acre. All field management were designed to effectively control weed and insect pests to optimize soybean growth and yield. The soybeans were planted and either 0, 0.5, 1.0, or 2.0 kg per acre of dibutyldithiophosphate was applied as a side dressing to the soybean plants. The dibutyldithiophosphate was dissolved in water and applied. The harvest weight was determined for each plot and corrected for slight differences in moisture content.

[4] = 85° C., 90% H2O/D2O, only phosphoric acid observed
[5] = water buffered at pH 6.7, FIG. 4
[6] = hydrolysis, rate constants 25 to 85° C.
[7] = 20 mg per plant, potassium salt, 88 days

SMILES: CCCCOP(=S)(S)OCCCC [Example 1, Dibutyldithiophosphate Ammonium Salt]
- Rate of first-step of hydrolysis (85° C.) (85° C., 90% H2O/D2O): 0.00096 h⁻¹
- Time to complete hydrolysis [4]: 180 days
- rate of hydrolysis, fold slower than the compound of Example 2 (85° C., Table 2): 3.5 ×
- rate of hydrolysis, fold slower than the dithiophosphate of Example 3 (85° C., Table 2): 7.4 ×
- rate of hydrolysis, fold slower than the dithiophosphate of Example 4 (85° C., Table 2): 1.4 ×
- release of H2S (rank among the dithiophosphates) [1, 5]: lowest release of H2S
- increase in weight of corn plants (corn plants; 1 mg ammonium salt added to soil adjacent to seed, 4 weeks, vs plants grown without): 39%
- Percent Degradation ([2]; 30 days, room temperature): <3%

SMILES: S=P1(S)OCCO1 [Example 2]
- half-life (physchem): 204 h

SMILES: CC1COP(=S)([S-])O1.[K+] (stereo not drawn) [Example 3]
- half-life (physchem): 98.4 h

SMILES: CC(C)[C@@H]1CC[C@@H](C)C[C@H]1OP(=S)([S-])O[C@@H]1C[C@H](C)CC[C@H]1C(C)C.[K+] [Example 5]
- release of H2S ([1]; pH 6.7): released H2S

SMILES: CCc1ccc(OP(=S)([S-])Oc2ccc(CC)cc2)cc1.[K+] [Example 6]
- half-life (physchem): 93.6 h

SMILES: CC(C)(C)OP(=S)(S)OC(C)(C)C [Example 8, di(tert-butanol)dithiophosphate Sodium Salt]
- Rate of first-step of hydrolysis (85° C.) (85° C., 90% H2O/D2O): 13.2 h⁻¹
- Time to complete hydrolysis [4]: 0.0493 days
- rate of hydrolysis, fold slower at room temperature than at 85° C. (room temperature vs 85° C.): 2,600 ×
- Rate of first-step of hydrolysis (room temperature, 90% H2O/D2O): 0.0051 h⁻¹
- Time to complete hydrolysis (room temperature, 90% H2O/D2O): 30 days
- release of H2S (rank among the dithiophosphates) [1, 5]: highest release of H2S
- ΔG^‡ (25° C.) ([3]; 25° C.): 105.7 kJ/mol
- −TΔS^‡ (25° C.) ([3]; 25° C.): -10.8 kJ/mol
- ΔΔG^‡ ([3]; 25° C. vs 85° C.): 2.2 kJ/mol
- ΔG^‡ (85° C.) ([3]; 85° C.): 103.5 kJ/mol
- sign of ΔS^‡ (in words) ([3]; hydrolysis): positive
- ΔH^‡ [3, 6]: 116.5 kJ/mol
- ΔS^‡ [3, 6]: 36.3 J/mol · K
- hydrolysis after 30 days ([2]; room temperature, 30 days): completely hydrolyzed
- Percent Degradation ([2]; 30 days, room temperature): 100%
- percent degraded ([2]; day 12, room temperature): 62%
- percent degraded ([2]; day 20, room temperature): 88%

SMILES: CCCSP(=S)(S)SCCC [Example 10]
- half-life (physchem): 3.12 h

SMILES: S=P1(S)SCCS1 [Example 11]
- half-life (physchem): 2.04 h

SMILES: S=P1(S)SCCCS1 [Example 12]
- half-life (physchem): 36 h

SMILES: S=P(S)(Sc1ccccc1)Sc1ccccc1 [Example 13]
- half-life (physchem): 31.2 h

SMILES: S=P1(S)OCCS1 (stereo not drawn) [Example 14]
- release of H2S (rank among the dithiophosphates) ([1]; pH 6.7): highest release of H2S

SMILES: S [Example H2S, hydrogen sulfide]
- level in the air that can lead to negative health effects (headaches, breathing problems in asthma) (people; exposure in the air): 2 ppm
- level immediately dangerous to life and health (people; exposure): 100 ppm

SMILES: C1COCCN1.COc1ccc(P(=S)(S)N2CCOCC2)cc1 (stereo not drawn) [GYY-4137]
- growth of radish plants (radish; in vivo): increased the growth
- harvest yield of radishes (radish; milligram loadings): doubled
- growth of lettuce plants (lettuce plants): increased the growth
- growth of pea plants (peas): increased the growth

SMILES: CCCCOP(=S)(S)OCCCC [dibutyldithiophosphate]
- number of pods, plant weight and total pod weight (pea plants; 10 mg per plant, potassium salt, 88 days): statistically significant increase
- increase in number of pods (pea plants; [7]): 55%
- increase in plant weight (pea plants; [7]): 46%
- increase in total pod weight (pea plants; [7]): 45%
- germination compared to the control plants (pea plants; 150 mg and 500 mg, potassium salt): reduction in germination
- number of plants germinating (pea plants; 150 mg, 25 seeds planted per dosing): 6 plants
- germination of seeds (pea plants; 500 mg): None of the seeds
- increase in harvest yield of soybeans (soybeans): 4.4%
- heights of corn plants (corn plants; in vivo): Little statistically significant difference
- weight of corn plants (corn plants; in vivo): improvements in weights
- weight of corn plants (significance) (corn plants; in vivo): statistically significant improvements

From patent publication US20230263164A1 (priority 2020, published 2023)
